# Tested on: red blood cell ghosts (plasma membrane)
# Test: Membrane retention coefficient (MRC) in red blood cell ghosts
# Format: binding
# Conditions: for Δ MRC: change in MRC to 24 hr
# Method: Determination of Membrane Retention Coefficient
# The membrane retention coefficient (MRC) provides information regarding how well a given compound is retained in the plasma membrane of a cell and is determined as described below.
# Generation of red blood cell ghosts for use as a model membrane is achieved by centrifuging whole blood at 300×g for 15 minutes, removal of the plasma and resuspension of the cell pellet in 0.83% (w/v) ammonium chloride. The ghosts are pelleted from the ammonium chloride by centrifuging at 10,000×g for 10 minutes. This ammonium chloride washing procedure is repeated a minimum of five times to insure that complete release of hemoglobin from the cells has occured. The ghosts are labeled with the compound in question at a concentration allowing for detection of the labeled ghosts by instrumental analysis or fluorescent microscopic methods, and at a concentration similar to those that would be used to label cells for a specific application as described above. For the determinations hereinbelow stock solutions of the compounds in question were prepared in ethanol at a molar concentration of 2×10^-3, and working dilutions of the compounds were prepared in iso-osmotic sucrose (52 g/500 ml distilled water). After incubation of the ghosts at an approximate concentration of 1×10^9 ghosts/ml in the working dilutions of the compounds for 10 minutes, the samples were centrifuged at 10,000×g to pellet the ghosts and the staining solution was aspirated from the samples. The labeled ghosts were resuspended in 1 ml of phosphate buffered saline solution containing 10% fetal bovine serum (PBS-FBS). Triplicate 20 ul aliquots were removed from each sample for the determination of the amount of total compound present. The samples were centrifuged as described above and triplicate 20 ul aliquots were removed from the supernatant for quantitative determination of amount of unbound compound present.
# After sampling, the supernatant was aspirated and the red cell ghost pellet was resuspended in 1.0 ml of the PBS-FBS, which was once again sampled as described above. This procedure was repeated at least six times, allowing for detection of rapidly released compounds and was monitored after times equal to or greater than 24 hours to allow for the detection of more slowly released compounds. For the determination of the amount of compound present in each sample, the 20 ul aliquots were extracted into 3.0 ml of n-butanol by shaking. The samples were centrifuged at 3000×g to remove membrane debris and the butanol fractions were assayed for compound concentration. Fluorescent compounds are assayed in this manner using peak excitation and emission wave lengths for the particular compounds being assayed to determine the fluorescence units for each sample.
# The determination of the amount of compound present in each sample as described above allows for the calculation of the MRC for each washing or fixed time point. The value is obtained by the following formula: […]
# wherein CT represents the amount of compound present (in units determined by the method used to assay the compound) in the total sample and CS represents the amount of compound present in the supernatant sample for that particular time point. The comparison of the MRC values defines criteria for identification of the compounds of this invention, these criteria being: 1) the MRC values determined for each washing steps should have a value of at least about 90 and 2) the percent difference between MRC values over at least a 24 hour time period should be less than about 10%. [drawing 14]
# The data provided in Table I below are the results from one experiment and serve as an example of the MRC determination. […]
Structure (SMILES),"Membrane retention coefficient (MRC), 24 HR",Δ MRC [%],"Membrane retention coefficient (MRC), WASH 1","Membrane retention coefficient (MRC), WASH 2","Membrane retention coefficient (MRC), WASH 3","Membrane retention coefficient (MRC), WASH 4","Membrane retention coefficient (MRC), WASH 5","Membrane retention coefficient (MRC), WASH 6"
CCCCCN1C(=CC=CC2=[N+](CCCCC)c3ccccc3C2(C)C)C(C)(C)c2ccccc21 [A],0.00,100.00,51.63,51.12,44.82,41.39,12.59,17.48
CCCCCCCCCCN1C(=CC=CC2=[N+](CCCCCCCCCC)c3ccccc3C2(C)C)C(C)(C)c2ccccc21 [B],54.08,42.95,83.28,92.36,94.63,94.94,95.33,94.80
CCCCCCCCCCCCCCN1C(=CC=CC2=[N+](CCCCCCCCCCCCCC)c3ccccc3C2(C)C)C(C)(C)c2ccccc21 [C],93.90,5.26,94.85,97.24,98.40,98.64,98.43,99.12
CCCCCCCCCCCCCCCCCCCCN1C(=CC=Cc2oc3ccccc3[n+]2CCC)Oc2ccccc21 [Compound H],90.10,8.43,91.70,97.22,97.97,98.24,98.09,98.40
CCCCCCCCCCCCCCN1C(=CC=Cc2oc3ccccc3[n+]2CCC)Oc2ccccc21 [D],18.84,75.82,50.40,61.20,64.45,65.85,70.62,77.92
CCCCCCCCCCCCCCCCCCN1C(=CC=Cc2oc3ccccc3[n+]2CCC)Oc2ccccc21 [E],53.81,44.62,90.69,94.74,96.28,96.74,96.41,97.17
CCC[n+]1c(C=CC=C2Oc3ccccc3N2CCC(C)CCCC(C)CCCC(C)CCCC(C)C)oc2ccccc21 (stereo not shown) [F],36.77,61.64,88.82,93.94,95.15,95.26,94.51,96.64
CCCCCCCCCCCCCCCCCCCCCCN1C(=CC=Cc2oc3ccccc3[n+]2CCC)Oc2ccccc21 [G],96.90,1.46,94.42,96.96,98.03,97.93,97.92,98.34
CCCCCCCCCCCCCCCCCCN1C(=CC=Cc2oc3ccccc3[n+]2CCCCCCCC)Oc2ccccc21 [I],97.65,2.08,94.69,98.24,98.32,98.78,98.96,99.73
CCCCCCCCCCCCCCCCCCN1C(=CC=Cc2oc3ccccc3[n+]2CCCCC)Oc2ccccc21 [J],87.24,10.57,94.07,96.99,98.66,98.39,98.82,97.56
CCCCCCCCCCCCCCCCCCCCCCN1C(=CC=Cc2oc3ccccc3[n+]2CCC)Oc2ccccc21 [K],97.90,1.56,97.35,98.47,98.16,98.99,99.01,99.46
CCCCCCCCCCCCCCCCCCCCCC[n+]1c2cc(N(C)C)ccc2cc2ccc(N(C)C)cc21 [L],96.82,3.12,97.90,98.89,98.90,99.18,99.09,99.22
CCCCCCCCCCCCCCCCCC[n+]1c2cc(N(C)C)ccc2cc2ccc(N(C)C)cc21 [M],42.88,55.79,91.01,95.12,95.82,96.42,96.27,97.01
CCCCCCCCCCCCCCCCCCCCCCCCCC[n+]1c2cc(N(C)C)ccc2cc2ccc(N(C)C)cc21 [N],98.27,0.61,95.97,97.51,98.32,98.48,98.71,98.88

# Source: patent US5667764A, “Compounds, compositions and methods for binding bio-affecting substances to surface membranes of bio-particles” (Zynaxis, Inc., priority 1992, dated 1997)
